The results in this text go back to patent US20260166128A1, “HUMAN AMYLIN ANALOG, AND DERIVATIVE THEREOF AND USE THEREOF” (priority 2022, published 2026).

Numbered stars: 1 amine (or outer) side, 2 acyl side, 3 side chain; on linkers, the order of the positions; unused ones are H or OH. Bridge positions count the residues as written; N and C are the ends. Square brackets hold non-standard residues; d marks the D form. Side chains are listed from the residue outwards. Peptide text beside a SMILES is read from it. * marks the point of attachment. C20 diacid = O=C(O)CCCCCCCCCCCCCCCCCCC(=O)*; C18 diacid = O=C(O)CCCCCCCCCCCCCCCCC(=O)*; γGlu = O=C(O)[C@H](CCC(=O)[*:2])N[*:1]; βAsp = O=C(O)[C@H](CC(=O)[*:2])N[*:1]; Hyp = O=C(O)[C@@H]1C[C@@H](O)CN1; Dap = NC[C@H](N)C(=O)O; AEEA = NCCOCCOCC(=O)O

The experiment deals with T1, human amylin receptor (Homo sapiens, UniProt O60896+P30988).
T1 construct: host or cells: CHO-K1/Ga15/AMY3 cells, further stably transfected with a CRE-luciferase plasmid
T1 sequence (P30988 25-474): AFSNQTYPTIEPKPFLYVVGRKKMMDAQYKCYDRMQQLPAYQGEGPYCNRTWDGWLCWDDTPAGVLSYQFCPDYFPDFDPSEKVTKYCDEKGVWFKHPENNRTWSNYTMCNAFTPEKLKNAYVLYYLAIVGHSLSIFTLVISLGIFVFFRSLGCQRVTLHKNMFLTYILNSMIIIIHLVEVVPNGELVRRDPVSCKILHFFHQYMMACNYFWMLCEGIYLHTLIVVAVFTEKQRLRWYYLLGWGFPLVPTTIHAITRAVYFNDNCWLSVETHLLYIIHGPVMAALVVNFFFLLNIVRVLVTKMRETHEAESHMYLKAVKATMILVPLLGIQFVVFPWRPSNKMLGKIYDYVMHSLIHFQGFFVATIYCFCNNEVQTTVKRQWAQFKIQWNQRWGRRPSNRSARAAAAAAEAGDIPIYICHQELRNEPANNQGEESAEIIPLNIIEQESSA
T1 sequence (O60896 24-148 partner): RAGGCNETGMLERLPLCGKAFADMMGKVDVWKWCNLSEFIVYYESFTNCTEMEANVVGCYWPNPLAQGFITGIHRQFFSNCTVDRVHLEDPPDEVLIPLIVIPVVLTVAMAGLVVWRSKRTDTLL
The experiment in a line: Luciferase assay of amylin derivatives in amylin receptor/CRE-luc CHO cell line. The conditions noted are these: CHO-K1/Ga15/AMY3 CRE-luc cells, 24 hours incubation, F12 medium containing 10% FBS; read-out: EC50. The experiment is classed as cell-based.
Method: The experiment was intended to detect the activity or efficacy of the amylin derivatives on a human amylin receptor in vitro by luciferase assay.
50 μL of growth medium (F12 medium containing 10% FBS) was added into each well of a white 96-well plate, and the stably transfected amylin/CRE-lue CHO cells were inoculated into the white 96-well plate at a density of about 20,000 cells/well for activity determination.
Regarding `CC[C@H](C)[C@H](NC(=O)[C@@H]1CCCN1C(=O)CNC(=O)[C@H](CC(C)C)NC(=O)[C@H](CC(N)=O)NC(=O)[C@H](CCCCNC(=O)COCCOCCNC(=O)CC[C@H](NC(=O)CCCCCCCCCCCCCCCCC(=O)O)C(=O)O)NC(=O)[C@H](CO)NC(=O)[C@H](CO)NC(=O)[C@H](Cc1c[nH]cn1)NC(=O)[C@H](CCCNC(=N)N)NC(=O)[C@H](CC(C)C)NC(=O)[C@H](Cc1ccccc1)NC(=O)[C@H](CC(=O)O)NC(=O)[C@H](C)NC(=O)[C@H](CC(C)C)NC(=O)[C@H](CCCNC(=N)N)NC(=O)[C@H](CCC(N)=O)NC(=O)[C@@H](NC(=O)[C@H](C)NC(=O)[C@@H]1CSSC[C@H](NC(=O)[C@@H](N)CCCNC(=N)N)C(=O)N[C@@H](CC(N)=O)C(=O)N[C@@H]([C@@H](C)O)C(=O)N[C@@H](C)C(=O)N[C@@H]([C@@H](C)O)C(=O)N1)[C@@H](C)O)C(=O)N[C@@H](CC(C)C)C(=O)N1CCC[C@H]1C(=O)N1CCC[C@H]1C(=O)N[C@H](C(=O)N[C@@H](CC(N)=O)C(=O)N[C@H](C(=O)NCC(=O)N[C@@H](CO)C(=O)N[C@@H](CC(N)=O)C(=O)N[C@H](C(=O)N1C[C@H](O)C[C@H]1C(N)=O)[C@@H](C)O)C(C)C)[C@@H](C)O` [PD115] (H-RCNTATCATQRLADFLRHSSK([AEEA-γGlu-C18 diacid])NLGPILPPTNVGSNT[Hyp]-NH2; disulfide 2-7), the EC50 – broadly, the concentration that produces a half-maximal response – stood at 0.011 nM.

In the case of `CC[C@H](C)[C@H](NC(=O)[C@@H]1CCCN1C(=O)CNC(=O)[C@H](CC(C)C)NC(=O)[C@H](CCCCNC(=O)CC[C@H](NC(=O)CCCCCCCCCCCCCCCCCCC(=O)O)C(=O)O)NC(=O)[C@H](CC(N)=O)NC(=O)[C@H](CO)NC(=O)[C@H](CO)NC(=O)[C@H](Cc1c[nH]cn1)NC(=O)[C@H](CCCNC(=N)N)NC(=O)[C@H](CC(C)C)NC(=O)[C@H](Cc1ccccc1)NC(=O)[C@H](CC(=O)O)NC(=O)[C@H](C)NC(=O)[C@H](CC(C)C)NC(=O)[C@H](CCCNC(=N)N)NC(=O)[C@H](CCC(N)=O)NC(=O)[C@@H](NC(=O)[C@H](C)NC(=O)[C@@H]1CSSC[C@H](NC(=O)[C@@H](N)CCCNC(=N)N)C(=O)N[C@@H](CC(N)=O)C(=O)N[C@@H]([C@@H](C)O)C(=O)N[C@@H](C)C(=O)N[C@@H]([C@@H](C)O)C(=O)N1)[C@@H](C)O)C(=O)N[C@@H](CC(C)C)C(=O)N1CCC[C@H]1C(=O)N1CCC[C@H]1C(=O)N[C@H](C(=O)N[C@@H](CC(N)=O)C(=O)N[C@H](C(=O)NCC(=O)N[C@@H](CO)C(=O)N[C@@H](CC(N)=O)C(=O)N[C@H](C(=O)N1C[C@H](O)C[C@H]1C(N)=O)[C@@H](C)O)C(C)C)[C@@H](C)O` [PD086] (H-RCNTATCATQRLADFLRHSSNK([γGlu-C20 diacid])LGPILPPTNVGSNT[Hyp]-NH2; disulfide 2-7), the EC50 worked out at 0.033 nM.

In the case of `CC[C@H](C)[C@H](NC(=O)[C@@H]1CCCN1C(=O)[C@H](CCCCNC(=O)COCCOCCNC(=O)COCCOCCNC(=O)CC[C@H](NC(=O)CCCCCCCCCCCCCCCCCCC(=O)O)C(=O)O)NC(=O)[C@H](CC(C)C)NC(=O)[C@H](CC(N)=O)NC(=O)[C@H](CC(N)=O)NC(=O)[C@H](CO)NC(=O)[C@H](CO)NC(=O)[C@H](Cc1c[nH]cn1)NC(=O)[C@H](CCCNC(=N)N)NC(=O)[C@H](CC(C)C)NC(=O)[C@H](Cc1ccccc1)NC(=O)[C@H](CC(=O)O)NC(=O)[C@H](C)NC(=O)[C@H](CC(C)C)NC(=O)[C@H](CCCNC(=N)N)NC(=O)[C@H](CCC(N)=O)NC(=O)[C@@H](NC(=O)[C@H](C)NC(=O)[C@@H]1CSSC[C@H](NC(=O)[C@@H](N)CCCNC(=N)N)C(=O)N[C@@H](CC(N)=O)C(=O)N[C@@H]([C@@H](C)O)C(=O)N[C@@H](C)C(=O)N[C@@H]([C@@H](C)O)C(=O)N1)[C@@H](C)O)C(=O)N[C@@H](CC(C)C)C(=O)N1CCC[C@H]1C(=O)N1CCC[C@H]1C(=O)N[C@H](C(=O)N[C@@H](CC(N)=O)C(=O)N[C@H](C(=O)NCC(=O)N[C@@H](CO)C(=O)N[C@@H](CC(N)=O)C(=O)N[C@H](C(=O)N1C[C@H](O)C[C@H]1C(N)=O)[C@@H](C)O)C(C)C)[C@@H](C)O` [PD081] (H-RCNTATCATQRLADFLRHSSNNLK([AEEA-AEEA-γGlu-C20 diacid])PILPPTNVGSNT[Hyp]-NH2; disulfide 2-7), the EC50 came out at 0.031 nM.

For `CC[C@H](C)[C@H](NC(=O)[C@@H]1CCCN1C(=O)[C@H](CCCCN)NC(=O)[C@H](CC(C)C)NC(=O)[C@H](CC(N)=O)NC(=O)[C@H](CC(N)=O)NC(=O)[C@H](CO)NC(=O)[C@H](CO)NC(=O)[C@H](Cc1c[nH]cn1)NC(=O)[C@H](CCCNC(=N)N)NC(=O)[C@H](CC(C)C)NC(=O)[C@H](Cc1ccccc1)NC(=O)[C@H](CC(=O)O)NC(=O)[C@H](C)NC(=O)[C@H](CC(C)C)NC(=O)[C@H](CCCNC(=N)N)NC(=O)[C@H](CCC(N)=O)NC(=O)[C@@H](NC(=O)[C@H](C)NC(=O)[C@@H]1CSSC[C@H](NC(=O)[C@H](CCCCN)NC(=O)C[C@H](NC(=O)COCCOCCNC(=O)COCCOCCNC(=O)CCCCCCCCCCCCCCCCCCC(=O)O)C(=O)O)C(=O)N[C@@H](CC(N)=O)C(=O)N[C@@H]([C@@H](C)O)C(=O)N[C@@H](C)C(=O)N[C@@H]([C@@H](C)O)C(=O)N1)[C@@H](C)O)C(=O)N[C@@H](CC(C)C)C(=O)N1CCC[C@H]1C(=O)N1CCC[C@H]1C(=O)N[C@H](C(=O)N[C@@H](CC(N)=O)C(=O)N[C@H](C(=O)NCC(=O)N[C@@H](CO)C(=O)N[C@@H](CC(N)=O)C(=O)N[C@H](C(=O)N1C[C@H](O)C[C@H]1C(N)=O)[C@@H](C)O)C(C)C)[C@@H](C)O` [PD184] ({C20 diacid-AEEA-AEEA-βAsp}-KCNTATCATQRLADFLRHSSNNLKPILPPTNVGSNT[Hyp]-NH2; disulfide 2-7 (inferred)), the EC50 is 0.037 nM.

Consider `CC[C@H](C)[C@H](NC(=O)[C@@H]1CCCN1C(=O)CNC(=O)[C@H](CCCCNC(=O)CC[C@H](NC(=O)CCCCCCCCCCCCCCCCC(=O)O)C(=O)O)NC(=O)[C@H](CC(N)=O)NC(=O)[C@H](CC(N)=O)NC(=O)[C@H](CO)NC(=O)[C@H](CO)NC(=O)[C@H](Cc1c[nH]cn1)NC(=O)[C@H](CCCNC(=N)N)NC(=O)[C@H](CC(C)C)NC(=O)[C@H](Cc1ccccc1)NC(=O)[C@H](CC(=O)O)NC(=O)[C@H](C)NC(=O)[C@H](CC(C)C)NC(=O)[C@H](CCCNC(=N)N)NC(=O)[C@H](CCC(N)=O)NC(=O)[C@@H](NC(=O)[C@H](C)NC(=O)[C@@H]1CSSC[C@H](NC(=O)[C@@H](N)CCCNC(=N)N)C(=O)N[C@@H](CC(N)=O)C(=O)N[C@@H]([C@@H](C)O)C(=O)N[C@@H](C)C(=O)N[C@@H]([C@@H](C)O)C(=O)N1)[C@@H](C)O)C(=O)N[C@@H](CC(C)C)C(=O)N1CCC[C@H]1C(=O)N1CCC[C@H]1C(=O)N[C@H](C(=O)N[C@@H](CC(N)=O)C(=O)N[C@H](C(=O)NCC(=O)N[C@@H](CO)C(=O)N[C@@H](CC(N)=O)C(=O)N[C@H](C(=O)N1C[C@H](O)C[C@H]1C(N)=O)[C@@H](C)O)C(C)C)[C@@H](C)O` [PD084] (H-RCNTATCATQRLADFLRHSSNNK([γGlu-C18 diacid])GPILPPTNVGSNT[Hyp]-NH2; disulfide 2-7 (inferred); N-terminus assumed), for which the EC50 was found to be 0.008 nM.

Regarding `CC[C@H](C)[C@H](NC(=O)[C@@H]1CCCN1C(=O)[C@H](CCCCNC(=O)CC[C@H](NC(=O)CCCCCCCCCCCCCCCCCCC(=O)O)C(=O)O)NC(=O)[C@H](CC(C)C)NC(=O)[C@H](CC(N)=O)NC(=O)[C@H](CC(N)=O)NC(=O)[C@H](CO)NC(=O)[C@H](CO)NC(=O)[C@H](Cc1c[nH]cn1)NC(=O)[C@H](CCCNC(=N)N)NC(=O)[C@H](CC(C)C)NC(=O)[C@H](Cc1ccccc1)NC(=O)[C@H](CC(=O)O)NC(=O)[C@H](C)NC(=O)[C@H](CC(C)C)NC(=O)[C@H](CCCNC(=N)N)NC(=O)[C@H](CCC(N)=O)NC(=O)[C@@H](NC(=O)[C@H](C)NC(=O)[C@@H]1CSSC[C@H](NC(=O)[C@@H](N)CN)C(=O)N[C@@H](CC(N)=O)C(=O)N[C@@H]([C@@H](C)O)C(=O)N[C@@H](C)C(=O)N[C@@H]([C@@H](C)O)C(=O)N1)[C@@H](C)O)C(=O)N[C@@H](CC(C)C)C(=O)N1CCC[C@H]1C(=O)N1CCC[C@H]1C(=O)N[C@H](C(=O)N[C@@H](CC(N)=O)C(=O)N[C@H](C(=O)NCC(=O)N[C@@H](CO)C(=O)N[C@@H](CC(N)=O)C(=O)N[C@H](C(=O)N1C[C@H](O)C[C@H]1C(N)=O)[C@@H](C)O)C(C)C)[C@@H](C)O` [PD073] (H-[Dap]CNTATCATQRLADFLRHSSNNLK([γGlu-C20 diacid])PILPPTNVGSNT[Hyp]-NH2; disulfide 2-7), the EC50 stood at 0.063 nM.
